Assay results from US20060046976A1, “Method for increasing the bone mineral density and bone micro-architecture or connectivity of a mammal using N-acylated glucosamines” (priority 2004, published 2006).

Tested on: SCW-arthritis rats
Assay: Two-dimensional subchondral bone analysis (structure, connectivity/strut analysis, plate thickness) of proximal tibia, SCW-arthritis rats
Format: in vivo, Lewis type rats
[1] = SCW + 20 mg, Middle section/lateral
[2] = SCW + 20 mg, Middle section/medial
[3] = SCW + 200 mg, Middle section/lateral
[4] = SCW + 200 mg, Middle section/medial
[5] = SCW + 200 mg, Posterior/lateral

## CCCC(=O)N[C@H]1C(O)O[C@H](CO)[C@@H](O)[C@@H]1O (stereo partly drawn) [GlcNBu, N-butyryl-D-glucosamine]
SCW + 20 mg, Anterior/lateral
  2D-BV/TV % loss: 40%
  2D-BV/TV Mean ± SEM: 23.7 ± 2.3%
  2D-Tb.N % loss: 21%
  2D-Tb.N Mean ± SEM: 5.8 ± 0.4 /mm
  2D-Tb.Th % loss: 32%
  2D-Tb.Th Mean ± SEM: 38.7 ± 1.7 um
  End Points % loss: −134%
  End Points Mean ± SEM: 36.2 ± 2.5 1/mm2
  Multiple points % loss: 43%
  Multiple points Mean ± SEM: 9.3 ± 1.6 1/mm2
  Node-node struts % loss: 75%
  Node-node struts Mean ± SEM: 0.8 ± 0.2 mm/mm2
  Total Strut length % loss: 30%
  Total Strut length Mean ± SEM: 5.3 ± 0.4 mm/mm2
SCW + 20 mg, Anterior/medial
  2D-BV/TV % loss: 33%
  2D-BV/TV Mean ± SEM: 27.2 ± 1.4%
  2D-Tb.N % loss: 12%
  2D-Tb.N Mean ± SEM: 5.6 ± 0.3 /mm
  2D-Tb.Th % loss: 29%
  2D-Tb.Th Mean ± SEM: 48.6 ± 1.6 um
  End Points % loss: −67%
  End Points Mean ± SEM: 22.5 ± 1.7 1/mm2
  Multiple points % loss: 42%
  Multiple points Mean ± SEM: 9.2 ± 1.0 1/mm2
  Node-node struts % loss: 47%
  Node-node struts Mean ± SEM: 1.2 ± 0.2 mm/mm2
  Total Strut length % loss: 14%
  Total Strut length Mean ± SEM: 5.1 ± 0.3 mm/mm2
[1]
  2D-BV/TV % loss: 13%
  2D-BV/TV Mean ± SEM: 24.9 ± 1.6%
  2D-Tb.N % loss: 2%
  2D-Tb.N Mean ± SEM: 4.6 ± 0.2 /mm
  2D-Tb.Th % loss: 11%
  2D-Tb.Th Mean ± SEM: 54.3 ± 2.8 um
  End Points % loss: −69%
  End Points Mean ± SEM: 17.5 ± 1.9 1/mm2
  Multiple points % loss: 16%
  Multiple points Mean ± SEM: 8.3 ± 1.1 1/mm2
  Node-node struts % loss: 3%
  Node-node struts Mean ± SEM: 1.0 ± 0.2 mm/mm2
  Total Strut length % loss: 14%
  Total Strut length Mean ± SEM: 4.0 ± 0.2 mm/mm2
[2]
  2D-BV/TV % loss: 31%
  2D-BV/TV Mean ± SEM: 29.2 ± 2.3%
  2D-Tb.N % loss: 1%
  2D-Tb.N Mean ± SEM: 4.6 ± 0.2 /mm
  2D-Tb.Th % loss: 30%
  2D-Tb.Th Mean ± SEM: 63.0 ± 4.0 um
  End Points % loss: −184%
  End Points Mean ± SEM: 14.1 ± 2.3 1/mm2
  Multiple points % loss: 13%
  Multiple points Mean ± SEM: 9.9 ± 1.1 1/mm2
  Node-node struts % loss: 42%
  Node-node struts Mean ± SEM: 1.2 ± 0.2 mm/mm2
  Total Strut length % loss: 11%
  Total Strut length Mean ± SEM: 4.2 ± 0.3 mm/mm2
SCW + 20 mg, Posterior/lateral
  2D-BV/TV % loss: 21%
  2D-BV/TV Mean ± SEM: 24.9 ± 1.5%
  2D-Tb.N % loss: 7%
  2D-Tb.N Mean ± SEM: 4.8 ± 0.2 /mm
  2D-Tb.Th % loss: 19%
  2D-Tb.Th Mean ± SEM: 51.8 ± 1.6 um
  End Points % loss: −100%
  End Points Mean ± SEM: 20.0 ± 1.8 1/mm2
  Multiple points % loss: 55%
  Multiple points Mean ± SEM: 7.8 ± 0.8 1/mm2
  Node-node struts % loss: 30%
  Node-node struts Mean ± SEM: 0.9 ± 0.1 mm/mm2
  Total Strut length % loss: 11%
  Total Strut length Mean ± SEM: 4.3 ± 0.2 mm/mm2
SCW + 20 mg, Posterior/medial
  2D-BV/TV % loss: 20%
  2D-BV/TV Mean ± SEM: 36.2 ± 1.6%
  2D-Tb.N % loss: 3%
  2D-Tb.N Mean ± SEM: 6.2 ± 0.2 /mm
  2D-Tb.Th % loss: 23%
  2D-Tb.Th Mean ± SEM: 59.3 ± 2.3 um
  End Points % loss: −216%
  End Points Mean ± SEM: 16.2 ± 2.1 1/mm2
  Multiple points % loss: 36%
  Multiple points Mean ± SEM: 12.6 ± 1.4 1/mm2
  Node-node struts % loss: 37%
  Node-node struts Mean ± SEM: 1.7 ± 0.3 mm/mm2
  Total Strut length % loss: 10%
  Total Strut length Mean ± SEM: 5.7 ± 0.3 mm/mm2
SCW + 200 mg, Anterior/lateral
  2D-BV/TV % loss: 37%
  2D-BV/TV Mean ± SEM: 24.8 ± 3.4%
  2D-Tb.N % loss: 20%
  2D-Tb.N Mean ± SEM: 6.0 ± 0.7 /mm
  2D-Tb.Th % loss: 30%
  2D-Tb.Th Mean ± SEM: 39.7 ± 2.9 um
  End Points % loss: −120%
  End Points Mean ± SEM: 34.1 ± 4.1 1/mm2
  Multiple points % loss: 37%
  Multiple points Mean ± SEM: 10.3 ± 2.7 1/mm2
  Node-node struts % loss: 64%
  Node-node struts Mean ± SEM: 1.2 ± 0.4 mm/mm2
  Total Strut length % loss: 28%
  Total Strut length Mean ± SEM: 5.4 ± 0.7 mm/mm2
SCW + 200 mg, Anterior/medial
  2D-BV/TV % loss: 31%
  2D-BV/TV Mean ± SEM: 27.8 ± 2.7%
  2D-Tb.N % loss: 10%
  2D-Tb.N Mean ± SEM: 5.7 ± 0.6 /mm
  2D-Tb.Th % loss: 28%
  2D-Tb.Th Mean ± SEM: 49.5 ± 4.3 um
  End Points % loss: −99%
  End Points Mean ± SEM: 26.7 ± 5.7 1/mm2
  Multiple points % loss: 32%
  Multiple points Mean ± SEM: 10.7 ± 1.7 1/mm2
  Node-node struts % loss: 45%
  Node-node struts Mean ± SEM: 1.3 ± 0.3 mm/mm2
  Total Strut length % loss: 15%
  Total Strut length Mean ± SEM: 5.1 ± 0.5 mm/mm2
[3]
  2D-BV/TV % loss: 15%
  2D-BV/TV Mean ± SEM: 24.1 ± 2.1%
  2D-Tb.N % loss: 0%
  2D-Tb.N Mean ± SEM: 4.7 ± 0.3 /mm
  2D-Tb.Th % loss: 16%
  2D-Tb.Th Mean ± SEM: 51.3 ± 2.8 um
  End Points % loss: −92%
  End Points Mean ± SEM: 19.8 ± 1.7 1/mm2
  Multiple points % loss: 2%
  Multiple points Mean ± SEM: 9.5 ± 1.9 1/mm2
  Node-node struts % loss: 15%
  Node-node struts Mean ± SEM: 0.9 ± 0.2 mm/mm2
  Total Strut length % loss: 9%
  Total Strut length Mean ± SEM: 4.2 ± 0.2 mm/mm2
[4]
  2D-BV/TV % loss: 17%
  2D-BV/TV Mean ± SEM: 35.1 ± 4.1%
  2D-Tb.N % loss: −9%
  2D-Tb.N Mean ± SEM: 5.1 ± 0.2 /mm
  2D-Tb.Th % loss: 24%
  2D-Tb.Th Mean ± SEM: 68.5 ± 6.3 um
  End Points % loss: −145%
  End Points Mean ± SEM: 12.2 ± 2.1 1/mm2
  Multiple points % loss: −11%
  Multiple points Mean ± SEM: 12.6 ± 1.8 1/mm2
  Node-node struts % loss: 4%
  Node-node struts Mean ± SEM: 2.0 ± 0.3 mm/mm2
  Total Strut length % loss: −2%
  Total Strut length Mean ± SEM: 4.9 ± 0.3 mm/mm2
[5]
  2D-BV/TV % loss: 27%
  2D-BV/TV Mean ± SEM: 23.2 ± 1.0%
  2D-Tb.N % loss: 13%
  2D-Tb.N Mean ± SEM: 4.5 ± 0.2 /mm
  2D-Tb.Th % loss: 22%
  2D-Tb.Th Mean ± SEM: 49.8 ± 1.7 um
  End Points % loss: −114%
  End Points Mean ± SEM: 21.4 ± 1.7 1/mm2
  Multiple points % loss: 59%
  Multiple points Mean ± SEM: 7.1 ± 0.7 1/mm2
  Node-node struts % loss: 46%
  Node-node struts Mean ± SEM: 0.7 ± 0.1 mm/mm2
  Total Strut length % loss: 16%
  Total Strut length Mean ± SEM: 4.0 ± 0.2 mm/mm2
SCW + 200 mg, Posterior/medial
  2D-BV/TV % loss: 21%
  2D-BV/TV Mean ± SEM: 35.9 ± 2.2%
  2D-Tb.N % loss: 5%
  2D-Tb.N Mean ± SEM: 6.1 ± 0.2 /mm
  2D-Tb.Th % loss: 21%
  2D-Tb.Th Mean ± SEM: 61.0 ± 3.6 um
  End Points % loss: −233%
  End Points Mean ± SEM: 17.1 ± 1.8 1/mm2
  Multiple points % loss: 29%
  Multiple points Mean ± SEM: 13.9 ± 1.8 1/mm2
  Node-node struts % loss: 23%
  Node-node struts Mean ± SEM: 2.1 ± 0.3 mm/mm2
  Total Strut length % loss: 12%
  Total Strut length Mean ± SEM: 5.6 ± 0.3 mm/mm2
SCW + GlcNBu High, lateral epiphysis of proximal tibia
  Subchondral Plate Thickness: 0.11 ± 0.04 mm
SCW + GlcNBu High, medial epiphysis of proximal tibia
  Subchondral Plate Thickness: 0.07 ± 0.04 mm
SCW + GlcNBu Low, lateral epiphysis of proximal tibia
  Subchondral Plate Thickness: 0.10 ± 0.04 mm
SCW + GlcNBu Low, medial epiphysis of proximal tibia
  Subchondral Plate Thickness: 0.07 ± 0.03 mm
SCW-arthritis rats, GlcNBu treatment, especially high dose
  decrease of Subchondral Plate Thickness in arthritis: minimized by GlcNBu treatment
SCW-arthritis rats, low and high dose GlcNBu
  bone connectivity: dose-dependent increase in bone connectivity
Medial side of the proximal epiphysis, high dose, p=0.034
  length of node-to-node struts, untreated arthritis-induced group to high dose group: significant increase
